In patent US8299074B2, “P38 MAP kinase inhibitors” (RespiVert Ltd., priority 2008, dated 2012):
Where two headings read alike, the source gives them in different places.

Key:
[1] = test system: Differentiated U937 cells; test: MTT assay (cell viability); format: cell-based, human; details: loss of cell viability at 1 μg/ml
Outline: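 Differentiated U937 cells pre-incubated with compound 4 h in 5% FCS or 24 h in 10% FCS; MTT read at 550 nm after DMSO solubilisation. Percentage loss of viability relative to 0.5% DMSO vehicle; apparent increases appear as negative percentages.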

[2] = test system: U937 cells; test: LPS-induced IL-8 release in U937 cells; format: cell-based; details: Homo sapiens, read-out: DU937 (LPS) IL-8 IC50
Outline: (§1)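 U937 cells differentiated with PMA (100 ng/ml) for 48 to 72 hours, pre-treated with compound for 2 hrs, then stimulated with E. coli O111:B4 LPS for 4 hrs. Supernatant TNFα and IL-8 measured by sandwich ELISA; inhibition at each concentration versus vehicle control.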

[3] = test system: THP-1 cells; test: LPS-induced TNF alpha release in THP-1 cells; format: cell-based; details: Homo sapiens
Description: LPS-Induced TNF Alpha Release in THP-1 Cells: Potency […] Coli; O111:B4, Sigma) for 4 hr and the supernatant collected for determination of TNFα concentration by sandwich ELISA (Duo-set, R&D systems). The inhibition of TNFα production was calculated at each concentration by comparison with vehicle control.

[4] = test system: U937 cells; test: LPS-induced TNF alpha release in U937 cells; format: cell-based
Outline: as §1

[5] = biological target: T1, p38 MAPK alpha (MAPK14) (Homo sapiens, UniProt Q16539); test: Enzyme inhibition assay, p38 MAPK alpha (FRET, Z-LYTE, via MAPKAP-K2); format: biochemical; details: Table 3; read-out: Enzyme p38α IC50
T1 construct: purchased Invitrogen

[6] = test system: BEAS2B cells; test: Poly I:C-induced ICAM-1 induction in BEAS2B cells; format: cell-based; details: Homo sapiens, BEAS-2B, read-out: BEAS2B (polyIC) ICAM1 IC50
Outline: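 Poly I:C (1 ug/ml) transfected into BEAS2B cells after 2 h compound pre-incubation. Surface ICAM-1 measured by cell-based ELISA 18 h post-transfection (HRP, OD450–655), corrected for cell number by OD595.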

[7] = THP-1, read-out: THP-1 (LPS) TNFα IC50
[8] = Homo sapiens, read-out: DU937 (LPS) TNFα REC50
[9] = THP-1, Table 3, read-out: THP-1 (LPS) TNFα IC50
[10] = Homo sapiens; read-out: DU937 (LPS) TNFα REC50

T1 sequence (Q16539 whole entry): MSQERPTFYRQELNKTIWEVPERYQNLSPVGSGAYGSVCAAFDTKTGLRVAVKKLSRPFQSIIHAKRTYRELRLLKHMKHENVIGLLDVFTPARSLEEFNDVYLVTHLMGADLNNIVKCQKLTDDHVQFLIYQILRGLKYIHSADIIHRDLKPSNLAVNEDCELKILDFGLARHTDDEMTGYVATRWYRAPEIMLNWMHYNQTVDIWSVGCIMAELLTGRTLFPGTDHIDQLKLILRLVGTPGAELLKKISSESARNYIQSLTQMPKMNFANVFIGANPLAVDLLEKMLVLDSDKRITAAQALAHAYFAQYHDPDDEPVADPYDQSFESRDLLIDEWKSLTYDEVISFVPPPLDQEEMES

Structure (SMILES)	DU937 (cell viability) MTT assay 4 h ([1]; Table 3, first MTT column)	DU937 (cell viability) MTT assay 4 h ([1]; Table 3, second MTT column)	IC50 [2]	IC50 [3, 7]	EC50 [4, 8]	IC50 [5]	IC50 [6]	IC50 ([2]; Table 3)	IC50 [3, 9]	EC50 [4, 10]	IC50 ([6]; Table 3)
Cc1ccc(-n2nc(C(C)(C)C)cc2NC(=O)Nc2ccc(Oc3ccnc(NC(=O)N(C)C)c3)c3ccccc23)cc1 [Example 44, 3-(4-((4-(3-(3-(tert-Butyl)-1-(p-tolyl)-1H-pyrazol-5-yl)ureido)naphthalen-1-yl)oxy)pyridin-2-yl)-1,1-dimethylurea]	− (<=30%)	− (<=30%)	< 10 nM	< 10 nM	< 10 nM	< 5000 nM	< 10 nM	–	–	–	–
Cc1ccc(-n2nc(C(C)(C)C)cc2NC(=O)Nc2ccc(Oc3ccnc(NC(=O)N4CCCCC4)c3)c3ccccc23)cc1 [Example 45, N-(4-((4-(3-(3-(tert-Butyl)-1-(p-tolyl)-1H-pyrazol-5-yl)ureido)naphthalen-1-yl)oxy)pyridin-2-yl)piperidine-1-carboxamide]	− (<=30%)	− (<=30%)	–	–	–	< 10 nM	–	< 10 nM	< 10 nM	< 10 nM	< 10 nM
Cc1ccc(-n2nc(C(C)(C)C)cc2NC(=O)Nc2ccc(Oc3ccnc(NC(=O)N(C)CCN4CCOCC4)c3)c3ccccc23)cc1 [Example 46, N-Methyl-N-(2-(morpholin-4-yl)ethyl)-N′-4-(4-(3-(3-tert-butyl-1-p-tolyl-1H-pyrazol-5-yl)ureido)naphthalen-1-yloxy)pyridin-2-ylurea]	− (<=30%)	− (<=30%)	–	–	–	< 10 nM	–	< 10 nM	< 5000 nM	< 10 nM	< 5000 nM
Cc1ccc(-n2nc(C(C)(C)C)cc2NC(=O)Nc2ccc(Oc3ccnc(NC(=O)NCCCCN4CCOCC4)c3)c3ccccc23)cc1 [Example 47, N-(4-(Morpholin-4-yl)butyl)-N′-4-(4-(3-(3-tert-butyl-1-p-tolyl-1H-pyrazol-5-yl)ureido)naphthalen-1-yloxy)pyridin-2-ylurea]	− (<=30%)	− (<=30%)	–	–	–	< 10 nM	–	< 10 nM	< 10 nM	< 10 nM	< 10 nM
Cc1ccc(-n2nc(C(C)(C)C)cc2NC(=O)Nc2ccc(Oc3ccnc(NC(=O)NCc4cc(C)no4)c3)c3ccccc23)cc1 [Example 49, N-(3-Methylisoxazol-5-yl)methyl-N′-4-(4-(3-(3-tert-butyl-1-p-tolyl-1H-pyrazol-5-yl)ureido)naphthalen-1-yloxy)pyridin-2-ylurea]	− (<=30%)	− (<=30%)	–	–	–	< 10 nM	–	< 5000 nM	< 10 nM	< 10 nM	< 5000 nM
Cc1ccc(-n2nc(C(C)(C)C)cc2NC(=O)Nc2ccc(Oc3ccnc(NC(=O)NC4CCN(C)CC4)c3)c3ccccc23)cc1 [Example 50, N-(1-Methyl)piperidin-4-yl-N′-4-(4-(3-(3-tert-butyl-1-p-tolyl-1H-pyrazol-5-yl)ureido)naphthalen-1-yloxy)pyridin-2-ylurea]	− (<=30%)	+ (>30%)	< 10 nM	< 10 nM	< 10 nM	< 10 nM	< 10 nM	–	–	–	–
Cc1ccc(-n2nc(C(C)(C)C)cc2NC(=O)Nc2ccc(Oc3ccnc(NC(=O)N4CCC(O)CC4)c3)c3ccccc23)cc1 [Example 51, N-(4-(4-(3-(3-tert-Butyl-1-p-tolyl-1H-pyrazol-5-yl)ureido)naphthalen-1-yloxy)pyridin-2-yl)-4-hydroxypiperidine-1-carboxamide]	− (<=30%)	+ (>30%)	–	–	–	< 10 nM	–	< 10 nM	< 10 nM	< 10 nM	< 10 nM
